Experimental data published in US20250215012A1, “IKZF2 DEGRADERS AND USES THEREOF” (REGENTS OF THE UNIVERSITY OF MICHIGAN, priority 2022, published 2025).
Where two headings read alike, the source gives them in different places.

Legend:
[1] = target: His tagged CRBN+DDB−DLS7+CXU4 (Homo sapiens (Human), UniProt Q96SW2); assay: IC50 Measurements for Binding to CRBN/DDBI (HTRF); settings: Cy5-labeled Thalidomide probe, one hour incubation
IKZF1 = IKZF1 (Homo sapiens (Human), UniProt Q13422+Q96SW2); assay: IKZF1 HiBit Assay (HEK293T Flp-in-HiBiT-IKZF1 stable cell line); assay type: cell-based; settings: for DC50: read-out: IKZF1 HiBit degradation DC50; for Dmax: HEK-293T, read-out: IKZF1 HiBit degradation Dmax
IKZF1, sequence (Q13422 whole entry): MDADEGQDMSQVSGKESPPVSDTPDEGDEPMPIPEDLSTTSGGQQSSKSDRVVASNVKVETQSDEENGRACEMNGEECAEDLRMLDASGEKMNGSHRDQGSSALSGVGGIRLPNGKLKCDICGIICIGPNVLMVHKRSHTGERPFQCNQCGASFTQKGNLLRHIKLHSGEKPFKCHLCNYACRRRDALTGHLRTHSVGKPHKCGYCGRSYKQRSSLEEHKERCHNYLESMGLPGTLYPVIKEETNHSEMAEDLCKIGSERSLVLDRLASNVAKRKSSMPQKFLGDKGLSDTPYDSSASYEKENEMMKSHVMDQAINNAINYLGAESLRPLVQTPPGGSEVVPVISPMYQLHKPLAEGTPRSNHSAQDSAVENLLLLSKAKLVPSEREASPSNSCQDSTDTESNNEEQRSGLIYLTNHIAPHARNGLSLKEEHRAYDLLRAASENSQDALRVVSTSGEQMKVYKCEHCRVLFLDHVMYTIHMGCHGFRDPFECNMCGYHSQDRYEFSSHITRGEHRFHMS
IKZF1, sequence (Q96SW2 whole entry): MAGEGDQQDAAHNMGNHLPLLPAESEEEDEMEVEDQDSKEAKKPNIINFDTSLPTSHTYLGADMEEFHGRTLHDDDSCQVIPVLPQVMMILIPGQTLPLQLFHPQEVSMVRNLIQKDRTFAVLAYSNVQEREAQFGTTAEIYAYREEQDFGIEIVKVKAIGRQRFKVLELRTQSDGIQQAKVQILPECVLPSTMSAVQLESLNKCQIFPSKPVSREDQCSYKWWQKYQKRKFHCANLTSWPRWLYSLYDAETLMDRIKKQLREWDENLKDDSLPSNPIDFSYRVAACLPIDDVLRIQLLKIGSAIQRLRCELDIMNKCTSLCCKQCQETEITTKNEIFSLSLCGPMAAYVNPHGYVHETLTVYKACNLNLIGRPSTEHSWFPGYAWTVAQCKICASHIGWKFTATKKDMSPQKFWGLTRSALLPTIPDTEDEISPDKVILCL
IKZF1, sequence (Q16531 whole entry partner): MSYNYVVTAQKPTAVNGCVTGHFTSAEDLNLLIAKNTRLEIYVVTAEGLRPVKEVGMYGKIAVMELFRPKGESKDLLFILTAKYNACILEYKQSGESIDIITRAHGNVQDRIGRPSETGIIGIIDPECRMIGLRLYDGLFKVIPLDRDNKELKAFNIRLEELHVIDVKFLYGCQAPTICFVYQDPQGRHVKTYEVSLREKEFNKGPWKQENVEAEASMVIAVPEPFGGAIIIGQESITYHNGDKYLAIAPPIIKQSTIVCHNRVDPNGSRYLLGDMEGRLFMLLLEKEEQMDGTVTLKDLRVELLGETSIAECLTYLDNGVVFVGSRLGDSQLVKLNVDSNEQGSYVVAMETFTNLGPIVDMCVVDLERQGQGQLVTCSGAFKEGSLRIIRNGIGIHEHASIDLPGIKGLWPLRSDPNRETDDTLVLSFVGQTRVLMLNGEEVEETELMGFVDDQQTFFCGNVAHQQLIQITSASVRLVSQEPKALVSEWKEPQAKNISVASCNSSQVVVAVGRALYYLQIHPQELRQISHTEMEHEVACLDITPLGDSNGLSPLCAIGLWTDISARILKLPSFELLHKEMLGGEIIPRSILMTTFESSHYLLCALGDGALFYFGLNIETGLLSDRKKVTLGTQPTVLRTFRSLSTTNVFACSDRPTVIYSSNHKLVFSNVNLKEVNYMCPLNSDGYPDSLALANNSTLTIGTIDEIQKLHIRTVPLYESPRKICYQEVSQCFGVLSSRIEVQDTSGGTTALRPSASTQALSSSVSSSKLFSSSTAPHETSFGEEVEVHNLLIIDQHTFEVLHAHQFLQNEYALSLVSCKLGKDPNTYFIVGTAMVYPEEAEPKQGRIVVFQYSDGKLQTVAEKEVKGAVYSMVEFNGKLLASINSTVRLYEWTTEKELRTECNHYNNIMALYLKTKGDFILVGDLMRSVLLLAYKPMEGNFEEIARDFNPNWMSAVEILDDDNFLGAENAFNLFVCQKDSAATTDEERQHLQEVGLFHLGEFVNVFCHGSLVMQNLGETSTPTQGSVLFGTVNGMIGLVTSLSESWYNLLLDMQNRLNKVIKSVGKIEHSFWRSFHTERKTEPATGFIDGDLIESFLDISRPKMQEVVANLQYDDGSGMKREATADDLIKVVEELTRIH
Method: The HiBiT protein tagging system was applied to modified Cells: modified HEK293T Flp-in-HiBiT-IKZF1 stable cell line (polyclone) via a CRISPR/Cas9—mediated insertion of the HiBiT peptide tag (Promega™) to the N-terminus of the IKZF2 gene locus (Neon™ transfection system).
Test compound from 10 mM and reference compound (CC-92480 from 50 mM and I-57 from 10 mM) are diluted at 3 folds for 11 doses. 25 nL of diluted compound is transferred to assay plates (Corning3571) using ECHO550, the final DMSO concentration @0.1%. The cells are seeded in 3000/[…]/well to compound plates. The plates are incubated for 6 hrs in TC incubator. The amount of Nano-Glo® HiBiT lytic reagent needed to perform the desired experiments is calculated. The Nano-Glo® HiBiT lytic reagent is brought to room temperature. The LgBiT protein is diluted to 1:100 and the Nano-Glo® HiBiT lytic substrate is brought to 1:50 into an appropriate volume of room temperature Nano-Glo® HiBiT lytic buffer. […] of the detection reagent (or without LgBiT) is dispensed to corresponding well according to the layout. The plate is shaked for 10 mins at room temperature. After briefly centrifuging, the plate is read on Envision. At the indicated timepoints, the Nano-Glo® HiBiT lytic detection system (Promega™) was utilized for detecting bioluminescence of the HiBiT tag in treated cells: abundance of the tag is proportionate to the level of luminescence. Following normalization to DMSO, dose-response curves were plotted (GraphPad Prism) to determine the concentration points at which 50% of HiBiT-Ikaros degradation was achieved by each compound. The extent of degradation (range of luminescence) from the highest to lowest concentration points was calculated to determine the Dm.

IKZF2 = IKZF2 (Homo sapiens (Human), UniProt Q96SW2+Q9UKS7); assay: IKZF2 HiBit Assay (HEK293T Flp-in-HiBiT cells); assay type: cell-based; settings: for DC50: read-out: IKZF2 HiBit degradation DC50; for Dmax: HEK-293T, read-out: IKZF2 HiBit degradation Dmax
IKZF2, sequence (Q9UKS7 whole entry): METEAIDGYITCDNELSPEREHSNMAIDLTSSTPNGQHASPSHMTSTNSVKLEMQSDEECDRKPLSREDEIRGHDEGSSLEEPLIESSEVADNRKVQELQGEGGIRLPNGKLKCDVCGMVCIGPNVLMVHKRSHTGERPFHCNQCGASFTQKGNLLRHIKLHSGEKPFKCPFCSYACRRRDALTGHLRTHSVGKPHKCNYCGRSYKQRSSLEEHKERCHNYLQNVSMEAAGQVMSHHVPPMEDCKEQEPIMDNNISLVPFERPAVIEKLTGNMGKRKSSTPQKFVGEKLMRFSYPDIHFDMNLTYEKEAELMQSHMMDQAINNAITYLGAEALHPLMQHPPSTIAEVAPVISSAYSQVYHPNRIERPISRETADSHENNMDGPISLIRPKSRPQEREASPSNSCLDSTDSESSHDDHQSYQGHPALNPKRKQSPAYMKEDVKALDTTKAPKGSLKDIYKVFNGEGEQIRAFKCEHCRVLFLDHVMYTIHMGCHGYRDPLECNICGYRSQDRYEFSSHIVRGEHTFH
IKZF2, sequence (Q96SW2 whole entry): as the sequence (Q96SW2 whole entry) above
IKZF2, sequence (Q16531 whole entry partner): as the sequence (Q16531 whole entry partner) above
Method: The HiBiT protein tagging system was applied to modified HEK293T Flp-in-HiBiT cells (polyclone) via a CRISPR/Cas9—mediated insertion of the HiBiT peptide tag (Promega™) to the N-terminus of the IKZF2 gene locus (Neon™ transfection system). Test and reference compounds are diluted from 1 mM at 3 folds for 11 doses. 25 nL of diluted compound is transferred to assay plates (Corning3570) using ECHO550, the final DMSO concentration @0.1%. The cells are seeded in 3000/[…]/well to compound plates. It is then incubated for 6 hrs in TC incubator. The amount of Nano-Glo® HiBiT lytic reagent needed to perform the desired experiments is calculated. The Nano-Glo® HiBiT lytic reagent is brought to room temperature. The LgBiT protein is diluted to 1:100 and the Nano-Glo® HiBiT lytic substrate is diluted to 1:50 into an appropriate volume of room temperature Nano-Glo® HiBiT lytic buffer. […] of the detection reagent (or without LgBiT) is dispensed to corresponding well according to the layout. The plate is then shaked for 10 mins at room temperature. After briefly centrifuge, the plate is read on Envision. At the indicated timepoints, the Nano-Glo® HiBiT lytic detection system (Promega™) was utilized for detecting bioluminescence of the HiBiT tag in treated cells: abundance of the tag is proportionate to the level of luminescence. Following normalization to DMSO, dose-response curves were plotted (GraphPad Prism) to determine the concentration points at which 50% of HiBiT-Helios degradation was achieved by each compound. The extent of degradation (range of luminescence) from the highest to lowest concentration points was calculated to determine the Dmax.

[2] = HEK293T Flp-in-HiBiT-IKZF1 cells, 6 hrs
[3] = HEK293T Flp-in-HiBiT cells, 6 hrs

His tagged CRBN+DDB−DLS7+CXU4, sequence (Q96SW2 whole entry): as the sequence (Q96SW2 whole entry) above
His tagged CRBN+DDB−DLS7+CXU4, sequence (Q16531 whole entry partner): as the sequence (Q16531 whole entry partner) above

Cn1cc2c(CN3CCC4(COc5c4ccc4c5CN([C@H]5CCC(=O)NC5=O)C4=O)C(F)(F)C3)cccc2n1 (stereo partly drawn) [Compound B42, (3S)-3-(3′,3′-difluoro-1′-((2-methyl-2H-indazol-4-yl)methyl)-6-oxo-6,8-dihydro-2H,7H-spiro[furo[2,3-e]isoindole-3,4′-piperidin]-7-yl)piperidine-2,6-dione]
IC50 [1]: 100 to 500 nM
DC50 (IKZF1; [2]): > 1000 nM
Dmax (IKZF1; [2]): < 20%
DC50 (IKZF2; [3]): 1 to 10 nM
Dmax (IKZF2; [3]): 60 to 80%

CC1CN(Cc2cccc(-c3cnn(C)c3)c2)CCC12COc1c2ccc2c1CN(C1CCC(=O)NC1=O)C2=O (stereo not shown) [Compound B21, 3-(3′-methyl-1′-(3-(1-methyl-1H-pyrazol-4-yl)benzyl)-6-oxo-6,8-dihydro-2H,7H-spiro[furo[2,3-e]isoindole-3,4′-piperidin]-7-yl)piperidine-2,6-dione]
IC50 [1]: 100 to 500 nM
DC50 (IKZF1; [2]): > 1000 nM
Dmax (IKZF1; [2]): < 20%
DC50 (IKZF2; [3]): 1 to 10 nM
Dmax (IKZF2; [3]): 20 to 40%

[2H]C1([2H])Oc2c(ccc3c2CN(C2CCC(=O)NC2=O)C3=O)C12CCN(Cc1cccc(-c3cnn(C)c3)c1)CC2 (stereo not shown) [Compound B13, 3-(1′-(3-(1-methyl-1H-pyrazol-4-yl)benzyl)-6-oxo-6,8-dihydro-2H,7H spiro[furo[2,3-e]isoindole-3,4′-piperidin]-7-yl-2,2-d2)piperidine-2,6-dione]
IC50 [1]: 100 to 500 nM
DC50 (IKZF1; [2]): > 1000 nM
Dmax (IKZF1; [2]): < 20%
DC50 (IKZF2; [3]): 1 to 10 nM
Dmax (IKZF2; [3]): 60 to 80%

O=C1CC[C@H](N2Cc3c(ccc4c3OCC43CCN(Cc4cccc5cn[nH]c45)CC3(F)F)C2=O)C(=O)N1 (stereo partly shown) [Compound B44]
IC50 [1]: < 100 nM
DC50 (IKZF1; [2]): 100 to 1000 nM
Dmax (IKZF1; [2]): 20 to 40%
DC50 (IKZF2; [3]): 1 to 10 nM
Dmax (IKZF2; [3]): > 80%

[2H]C([2H])(c1ccc2cnn(C)c2c1)N1CCC2(CC1)COc1c2ccc2c1CN([C@H]1CCC(=O)NC1=O)C2=O [Compound B8, (S)-3-(1′-((1-methyl-1H-indazol-6-yl)methyl-d2)-6-oxo-6,8-dihydro-2H,7H-spiro[furo[2,3-e]isoindole-3,4′-piperidin]-7-yl)piperidine-2,6-dione]
IC50 [1]: 100 to 500 nM
DC50 (IKZF1; [2]): > 1000 nM
Dmax (IKZF1): < 20%
DC50 (IKZF2; [3]): 1 to 10 nM
Dmax (IKZF2): 60 to 80%

[2H]C([2H])(c1cccc(-c2cnn(C)c2)c1)N1CCC2(CC1)COc1c2ccc2c1CN([C@H]1CCC(=O)NC1=O)C2=O [Compound B11, (S)-3-(1′-((3-(1-methyl-1H-pyrazol-4-yl)phenyl)methyl-d2)-6-oxo-6,8-dihydro-2H,7H-spiro[furo[2,3-e]isoindole-3,4′-piperidin]-7-yl)piperidine-2,6-dione]
IC50 [1]: < 100 nM
DC50 (IKZF1; [2]): > 1000 nM
Dmax (IKZF1; [2]): < 20%
DC50 (IKZF2; [3]): 1 to 10 nM
Dmax (IKZF2; [3]): > 80%

O=C1CC[C@H](N2Cc3c(ccc4c3OCC43CCN(Cc4cc(-c5ccc(Cl)cc5)ns4)CC3)C2=O)C(=O)N1 [Compound B3, (S)-3-(1′-((3-(4-chlorophenyl)isothiazol-5-yl)methyl)-6-oxo-6,8-dihydro-2H,7H-spiro[furo[2,3-e]isoindole-3,4′-piperidin]-7-yl)piperidine-2,6-dione]
IC50 [1]: < 100 nM
DC50 (IKZF1; [2]): > 1000 nM
Dmax (IKZF1; [2]): < 20%
DC50 (IKZF2; [3]): 10 to 100 nM
Dmax (IKZF2; [3]): 60 to 80%

O=C1CC[C@H](N2Cc3c(ccc4c3OCC43CCN(Cc4cnn(-c5ccc(Cl)cc5)c4)CC3(F)F)C2=O)C(=O)N1 (stereo partly drawn) [Compound B30, (3S)-3-(1′-((1-(4-chlorophenyl)-1H-pyrazol-4-yl)methyl)-3′,3′-difluoro-6-oxo-6,8-dihydro-2H,7H-spiro[furo[2,3-e]isoindole-3,4′-piperidin]-7-yl)piperidine-2,6-dione]
IC50 [1]: 1000 to 5000 nM
DC50 (IKZF1; [2]): > 1000 nM
Dmax (IKZF1; [2]): < 20%
DC50 (IKZF2; [3]): 1 to 10 nM
Dmax (IKZF2; [3]): 60 to 80%
